Here are results for four molecules from patent publication US8835354B2, “Composition for controlling plant diseases and method for controlling plant diseases” (Sumitomo Chemical Company, Limited, priority 2008, dated 2014).

What all share (type): in vivo
Experiment [1] concerns Pythium irregulare, pathogen of cucumber damping-off. In words: Cucumber damping-off seed treatment test with metalaxyl (Test Example 4). The following applies: seventh day. How it is done:
(§1) Control value=100(A−B)/A “Equation 1”
(§2) A: Incidence of disease of plant in untreated area
(§3) B: Incidence of disease of plant in treated area
(§4) Generally, the control value expected for the case where the given two kinds of active ingredient compounds are mixed and used for the treatment, the so-called control value expectation is calculated from the following Colby's calculating equation. E=X+Y−(X×Y)/100 “Equation 2”
(§5) X: Control value (%) when active ingredient compound A is used for treatment in M g per hectare or in M g per 100 kg of seeds
(§6) Y: Control value (%) when active ingredient compound B is used for treatment in N g per hectare or in N g per 100 kg of seeds
(§7) E: Control value (%) expected for the case where active ingredient compound A in M g per hectare or in M g per 100 kg of seeds and active ingredient compound B in N g per hectare or in N g per 100 kg of seeds are mixed and used for treatment (hereinbelow referred to as “control value expectation”) “Synergetic effect”=(Actual control value)×100/(Control value expectation) Incidence of disease=(Number of no budding seeds)×100/(Number of total disseminated seeds) “Equation 3”
(§8) An acetone solution of compound (1b) and an acetone solution of metalaxyl were mixed so as to prepare mixed liquids containing compound (1b) and metalaxyl in predetermined concentration. These mixed liquids were adhered on the surface of cucumber (Sagamihanjiro) seeds so as to obtain treated seeds. […] They were allowed to grow in a greenhouse while irrigated and the number of non-budding seeds was checked on the seventh day after the dissemination and the incidence of disease was calculated by Equation 3. The control value was calculated by Equation 1 based on the incidence of disease. In order to calculate the control value, the incidence of disease was also determined in the case in which the plants had not been treated with the agent. […]

For experiment [2], the system named is Rhizoctonia solani, pathogen of cucumber damping-off. In words: Cucumber damping-off seed treatment test (Test Example 1). Particulars: seventh day. An excerpt:
An acetone solution of compound (1b) and an acetone solution of tolclofos-methyl were mixed so as to prepare mixed liquids containing compound (1b) and tolclofos-methyl in predetermined concentration. These mixed liquids were used for smear treatment of cucumber (Sagamihanjiro) seeds using a rotary seed treatment machine (seed dresser, produced by Hans-Ulrich Hege GmbH) so as to obtain treated seeds. The treated seeds were left untouched overnight and then disseminated on the soil which filled a plastic pot and covered with the soil containing Rhizoctonia solani, pathogen of cucumber damping-off, which had been cultured on a bran medium. They were allowed to grow in a greenhouse while irrigated and the number of non-budding seeds was checked on the seventh day after the dissemination and the incidence of disease was calculated by Equation 3. The control value was calculated by Equation 1 based on the incidence of disease. The incidence of disease was also checked in the case in which the plants had not been treated with the agent in order to calculate the control value. […]
Generally, the control value expected for the case where the given two kinds of active ingredient compounds are mixed and used for the treatment, the so-called control value expectation is calculated from the following Colby's calculating equation. […]

Experiment [3] concerns Pythium irregulare, pathogen of cucumber damping-off. In words: Cucumber damping-off seed treatment test with mefenoxam (Test Example 5). Particulars: seventh day. The protocol: as §1, §2, §3, §4, §5, §6, §7
as §8, with “mefenoxam” for “metalaxyl”

Experiment [4] deals with Rhizoctonia solani, pathogen of brown patch of turfgrass. In words: Turfgrass brown patch foliage application test (Test Example 3). The following applies: 14 days. The protocol:
as §1, §2, §3, §4, §5, §6, §7
A plastic pot was filled with sandy soil. Turfgrass (bentgrass penncross) was disseminated and allowed to grow in a green house for 3 weeks. A wettable powder of compound (1b) and a wettable powder of tolclofos-methyl (Grancer Wettable Powder manufactured by Nihon Green & Garden Corporation) were respectively diluted with water and then tank-mixed so as to prepare tank-mixed liquids containing compound (1b) and tolclofos-methyl in predetermined concentration. […] The diseased area ratio of the pot plants on which the agents had been sprayed was determined as the incidence of disease at the time of checking and the control value was calculated by Equation 1 based on the incidence of disease thus determined. In order to calculate the control value, the incidence of disease was also determined in the case in which the plants had not been treated with the agent. […]

Experiment [5] deals with Sclerotinia homeocarpa, pathogen of dollar spot of turfgrass. In words: Turfgrass dollar spot foliage application test (Test Example 2). Particulars: 14 days. The protocol: as §1, §2, §3, §4, §5, §6, §7
A plastic pot was filled with sandy soil. Turfgrass (bentgrass penncross) was disseminated and allowed to grow in a green house for 3 weeks. A wettable powder of compound (1b) and a wettable powder of tolclofos-methyl (Grancer Wettable Powder manufactured by Nihon Green & Garden Corporation) were respectively diluted with water and then tank-mixed so as to prepare tank-mixed liquids containing compound (1b) and tolclofos-methyl in predetermined concentration. The tank-mixed liquids were subjected to foliage application such that they could be sufficiently adhered to the leaves of the aforementioned turfgrass. Thereafter, the plants were air-dried. After the plants were air-dried, Sclerotinia homeocarpa, pathogen of dollar spot of turfgrass, which had been cultured on a bran medium was sprayed on the plants to be treated from above. Then, the plants were placed in a greenhouse at 19° C. to 23° C. under high humidity for 14 days, and thereafter control effect was checked. The diseased area ratio of the pot plants on which the agents had been sprayed was determined as the incidence of disease at the time of checking and the control value calculated by Equation 1 based on the incidence of disease thus determined. In order to calculate the control value, the incidence of disease was also determined in the case in which the plants had not been treated with the agent.
As a comparison, the respective wettable powders described above were diluted with water in predetermined concentration so as to prepare a compound (1b) liquid and a tolclofos-methyl liquid respectively and they were subjected to similar tests.

Where [6] appears, read: compound (1b) 0.005 g/100 kg-seed alone.
[7] abbreviates: tolclofos-methyl 37.5 g/ha alone.

SMILES strings stand for the structures.

As for `CNC(=O)C(OC)c1ccccc1COc1cc(C)ccc1C` (racemic) [(1b)], the Actual control value in experiment [1] (setting [6]) is on record as 25%; in experiment [2] (compound (1b) 1 g/100 kg-seed alone) it was 30%; in experiment [3] (setting [6]), 25%; in experiment [4] (compound (1b) 9.4 g/ha alone), 30%; in experiment [4] (compound (1b) 37.5 g/ha alone) it was 45%. Moreover, the “Actual control value (%)” value in experiment [5] (compound (1b) 150 g/ha alone) is 67.2%.
Turning to `COCC(=O)N(c1c(C)cccc1C)[C@H](C)C(=O)OC` [Mefenoxam, mefenoxam], the values for the Actual control value in experiment [3] (mefenoxam 0.00125 g/100 kg-seed alone) and in experiment [3] (mefenoxam 0.005 g/100 kg-seed alone) were 25% and 50%, respectively.
On to `COCC(=O)N(c1c(C)cccc1C)C(C)C(=O)OC` (stereo not drawn) [Metalaxyl, metalaxyl], for which the Actual control value in experiment [1] (metalaxyl 0.00125 g/100 kg-seed alone) was 25%; in experiment [1] (metalaxyl 0.0025 g/100 kg-seed alone) it was 12.5%.
Turning to `COP(=S)(OC)Oc1c(Cl)cc(C)cc1Cl` [Tolclofos-methyl, tolclofos-methyl], the Actual control value in experiment [2] (tolclofos-methyl 10 g/100 kg-seed alone) is reported as 57%; in experiment [4] (setting [7]), 30%. Further, the “Actual control value (%)” value in experiment [5] (setting [7]) is given as 12.4%; in experiment [5] (tolclofos-methyl 150 g/ha alone), 43.7%; in experiment [5] (tolclofos-methyl 600 g/ha alone), 59.3%.
